Results taken from publication doi:10.1101/2021.04.29.441652v1 (biorxiv, 2021).

Molecular target: human σ2 receptor (TMEM97) (Homo sapiens, UniProt Q5BJF2)
Experiment: biochemical
Assay type: Expi293 membranes
Details: read-out: % of control remaining

Chain of human σ2 receptor (TMEM97) (Q5BJF2 whole entry): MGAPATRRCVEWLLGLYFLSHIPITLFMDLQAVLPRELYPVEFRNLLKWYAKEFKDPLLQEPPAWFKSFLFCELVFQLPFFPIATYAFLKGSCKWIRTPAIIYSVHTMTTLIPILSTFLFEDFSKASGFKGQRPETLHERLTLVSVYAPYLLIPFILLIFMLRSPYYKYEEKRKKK

How did the remaining activity at 1 µM turn out when `Cc1cc(NC(=O)[C@H](C)N2CCC[C@@H]([C@H](C)O)C2)ccc1Br` [ZINC000534109220] was run?
The remaining activity at 1 µM was 70.4%.

With `CCc1cc(N2CCC[C@@H](N[C@H](C)c3ccc(OC)c(Cl)c3)C2)ncn1` [ZINC000536865847] as the compound, how does the remaining activity at 1 µM read?
The remaining activity at 1 µM was 36.3%.

`CCCC1CCC(CN2CCN(CC(=O)N(CC)CC)CC2)CC1` (stereo not drawn) [ZINC000539406733] was tested. Which remaining activity at 1 µM did it give?
Its remaining activity at 1 µM is 34%.

For `C[C@@H](C(=O)NCc1ccccc1Cl)N1CC[C@H](n2ncc3ccccc32)C1` [ZINC000542825037], which remaining activity at 1 µM is on record?
The remaining activity at 1 µM was 107%.

With `COc1cccc2ncnc(N3CCN(CC4CCOCC4)CC3)c12` [ZINC000543048256] as the compound, how does the remaining activity at 1 µM read?
The remaining activity at 1 µM was 109%.

For `FC(F)(F)c1cccc([C@@]2(F)CCN(C[C@@H]3CCSC3)C2)c1` [ZINC000549824186], which remaining activity at 1 µM is on record?
Its remaining activity at 1 µM is 20%.

`Cc1nc(CN2CC[C@H](CC3CC3)C2)nc2ccccc12` [ZINC000550423124] was tested. Which remaining activity at 1 µM did it give?
Its remaining activity at 1 µM is 43.5%.

Which remaining activity at 1 µM does the source give for `Cn1nccc1[C@@H]1CCC[C@@H](N[C@H]2CC3CCC2CC3)C1` [ZINC000550829396] here?
The remaining activity at 1 µM was 19.6%.

For `CN1CCN(CCCCNC(=O)C(=O)N2CCSCC2)CC1` [ZINC000555574173], which remaining activity at 1 µM is on record?
Its remaining activity at 1 µM is 107%.

`CC(C)OCCN1CCC(NC(=O)[C@@H]2CCc3nncn3C2)CC1` [ZINC000556484619] was tested. Which remaining activity at 1 µM did it give?
The remaining activity at 1 µM was 112%.

With `CN1CC[C@](O)(CN[C@@H](c2sccc2Br)C2CCCCC2)C1` [ZINC000556573026] as the compound, how does the remaining activity at 1 µM read?
Its remaining activity at 1 µM is 16.7%.

How did the remaining activity at 1 µM turn out when `CN1CCN(C(=O)C(=O)N2CCCN(C3CCCC3)CC2)CC1=O` [ZINC000556797005] was run?
Its remaining activity at 1 µM is 79.9%.

How did the remaining activity at 1 µM turn out when `COCCN1CCC[C@@H]1CNC(=O)C(=O)N1CCC[C@@H](C(C)C)CC1` [ZINC000557493019] was run?
Its remaining activity at 1 µM is 113%.

With `CC1CCC(CNC(=O)C(=O)NC2CCN([C@@H]3CCC[C@@H]3O)CC2)CC1` (stereo partly drawn) [ZINC000564110976] as the compound, how does the remaining activity at 1 µM read?
Its remaining activity at 1 µM is 78.2%.

How did the remaining activity at 1 µM turn out when `Cc1csc2nc(CN[C@H]3C[C@H](OCc4ccccc4)C3(C)C)cc(=O)n12` [ZINC000567338231] was run?
The remaining activity at 1 µM was 34.7%.

Which remaining activity at 1 µM does the source give for `C[C@H](C(=O)NCc1ccc(Cl)cc1)N1CC[C@@H](c2cccnc2)C1` [ZINC000571080072] here?
The remaining activity at 1 µM was 64%.

Which remaining activity at 1 µM does the source give for `CCc1ccc([C@@H](C)N[C@@H]2CCCN(C(=O)CCC(F)(F)F)C2)s1` [ZINC000574285278] here?
Its remaining activity at 1 µM is 76.2%.

With `C[C@@H]1C[C@H](NC(=O)C(=O)N(C)Cc2c(Cl)cccc2Cl)CN1C1CC1` [ZINC000574318236] as the compound, how does the remaining activity at 1 µM read?
The remaining activity at 1 µM was 100%.

How did the remaining activity at 1 µM turn out when `CCc1nc2cc(CN[C@@H](C)CC(=O)N3CCCCCC3)ccc2n1C1CC1` [ZINC000574654702] was run?
The remaining activity at 1 µM was 48.4%.

For `Cc1ccc2c(c1)[C@H](NC(=O)NC[C@@H]1CCN(C(C)C)C1)CCC2` [ZINC000575186982], which remaining activity at 1 µM is on record?
Its remaining activity at 1 µM is 22.9%.

For `C[C@H](NC1CC1)C(=O)NCc1ccc(C(=O)N=c2cc[nH]cc2)cc1` [ZINC000576277949], which remaining activity at 1 µM is on record?
Its remaining activity at 1 µM is 67.2%.

How did the remaining activity at 1 µM turn out when `C[C@H](Cc1ccccc1Br)NCC1(O)CCC1` [ZINC000577603040] was run?
Its remaining activity at 1 µM is 61.7%.

With `O[C@@H]1CC[C@@H]2CN(Cc3cccc4c[nH]nc34)C[C@@H]21` [ZINC000582751592] as the compound, how does the remaining activity at 1 µM read?
The remaining activity at 1 µM was 72.4%.

How did the remaining activity at 1 µM turn out when `Fc1cccc(Cl)c1CNC1CCC2(CCCO2)CC1` (stereo not drawn) [ZINC000584028046] was run?
The remaining activity at 1 µM was 18.4%.

For `CC1(C)Cc2cc(C(=O)N3CCC[C@@H](N4CCCC4)CC3)ccc2O1` [ZINC000584233558], which remaining activity at 1 µM is on record?
The remaining activity at 1 µM was 22.7%.

`C[C@@H](C(=O)NC[C@H](C)N1CCCC1)c1c(Cl)cccc1Cl` [ZINC000586751050] was tested. Which remaining activity at 1 µM did it give?
The remaining activity at 1 µM was 98.2%.

With `O=C(Cn1cc([N+](=O)[O-])ccc1=O)N1CC[C@H](N2CC[C@@H](O)C2)C1` [ZINC000588863575] as the compound, how does the remaining activity at 1 µM read?
Its remaining activity at 1 µM is 134%.

With `C[C@H](CN(C)CC(=O)NCc1cccc(Cl)c1)c1ccccc1` [ZINC000589606863] as the compound, how does the remaining activity at 1 µM read?
The remaining activity at 1 µM was 68.9%.

`CC(C)Cc1ccc(C(=O)N2CCN([C@@H]3CCC[C@@H]3O)CC2)cc1` [ZINC000592403811] was tested. Which remaining activity at 1 µM did it give?
Its remaining activity at 1 µM is 153%.

With `CCCN1CC[C@H](NS(=O)(=O)c2ccc(C(=O)OC)cc2F)C1` [ZINC000595353335] as the compound, how does the remaining activity at 1 µM read?
The remaining activity at 1 µM was 97.7%.

`N#Cc1sccc1N1CCN(CCCCCn2cccn2)CC1` [ZINC000595632104] was tested. Which remaining activity at 1 µM did it give?
Its remaining activity at 1 µM is 45.7%.

With `Cc1cc([N+](=O)[O-])ccc1NC(=O)CN1CCC[C@@H]([C@@H]2CCCCO2)C1` [ZINC000595790972] as the compound, how does the remaining activity at 1 µM read?
The remaining activity at 1 µM was 96.1%.

`CCc1c(C(=O)N[C@@H](C)C2CCN(C)CC2)cnn1-c1ccccc1` [ZINC000603324806] was tested. Which remaining activity at 1 µM did it give?
Its remaining activity at 1 µM is 65.5%.

How did the remaining activity at 1 µM turn out when `CC(C)Cc1ccc(C(=O)Nc2ccc(OCCN3CCN(C)CC3)cc2)cc1` [ZINC000608224751] was run?
The remaining activity at 1 µM was 75.6%.

For `COC(=O)[C@H](NCC(C)(C)N1CCc2ccccc2C1)c1ccccc1` [ZINC000609803478], which remaining activity at 1 µM is on record?
Its remaining activity at 1 µM is 49.8%.

With `COC(=O)[C@H](c1cccc(Cl)c1Cl)N1CCC[C@H](N2CCCC2)C1` [ZINC000611661177] as the compound, how does the remaining activity at 1 µM read?
The remaining activity at 1 µM was 19.1%.

How did the remaining activity at 1 µM turn out when `CCN1CC[C@H](N(CC)C(=O)c2cccc(C(F)(F)F)n2)C1` [ZINC000617924178] was run?
Its remaining activity at 1 µM is 126%.

With `CN(C)S(=O)(=O)N(C)CC(=O)N[C@@H]1COc2cc(F)ccc2C1` [ZINC000618647685] as the compound, how does the remaining activity at 1 µM read?
Its remaining activity at 1 µM is 91.7%.

For `CCCN1CCC[C@H]1C(=O)NCc1cnccc1C(F)(F)F` [ZINC000621202771], which remaining activity at 1 µM is on record?
Its remaining activity at 1 µM is 61.4%.

For `CC(C)(CO)N1CCN(c2nc3c(Br)cccc3s2)CC1` [ZINC000621267824], which remaining activity at 1 µM is on record?
Its remaining activity at 1 µM is 33.4%.

With `C[C@@H]1CCCC[C@H]1OCCNC(=O)NC[C@H]1CCCCN(C)C1` [ZINC000623468108] as the compound, how does the remaining activity at 1 µM read?
The remaining activity at 1 µM was 84.9%.

With `CC(C)CC[C@@H](CO)N[C@H](C)c1nc2c(s1)CCCC2` [ZINC000624110289] as the compound, how does the remaining activity at 1 µM read?
Its remaining activity at 1 µM is 49.3%.

`COCC(COC)N1CCN(S(=O)(=O)c2cnc(C)n2C)CC1` [ZINC000625246444] was tested. Which remaining activity at 1 µM did it give?
The remaining activity at 1 µM was 105%.

How did the remaining activity at 1 µM turn out when `O=C([C@@H]1CCCN1c1ncccn1)N1CC[C@@H](N2CC[C@H](O)C2)C1` [ZINC000627254962] was run?
The remaining activity at 1 µM was 114%.

How did the remaining activity at 1 µM turn out when `COc1ccccc1C[C@@](C)(CO)NCc1ccc2c(c1)ncn2C` [ZINC000631236280] was run?
Its remaining activity at 1 µM is 92%.

How did the remaining activity at 1 µM turn out when `O=C(Nc1cscc1Cl)C(=O)N[C@@H]1CCN(CC2CC2)C1` [ZINC000635049325] was run?
Its remaining activity at 1 µM is 53.2%.

With `Clc1ccc(O[C@H]2CCN(C3CCCC3)C2)cc1` [ZINC000645238909] as the compound, how does the remaining activity at 1 µM read?
Its remaining activity at 1 µM is 35.5%.

`C[C@@H](Cc1c(Cl)cccc1Cl)NC(=O)c1cn(C[C@@H]2CCCN2)nn1` [ZINC000646273308] was tested. Which remaining activity at 1 µM did it give?
Its remaining activity at 1 µM is 106%.

How did the remaining activity at 1 µM turn out when `O=C(CN1CCC[C@@H]1[C@@H]1CCC[C@H]1O)N1CCOC[C@H]1C1CC1` [ZINC000649929688] was run?
The remaining activity at 1 µM was 96.5%.

`O=C(Nc1ccc2ncnn2c1)[C@]1(O)CCN(Cc2ccccc2)C1` [ZINC000655168559] was tested. Which remaining activity at 1 µM did it give?
Its remaining activity at 1 µM is 97.6%.

How did the remaining activity at 1 µM turn out when `Cc1cc(F)c(CN[C@@H]2CCN(c3ccccc3C(N)=O)C2)c(Cl)c1` [ZINC000656499190] was run?
The remaining activity at 1 µM was 71.5%.

`OC[C@]1(CNC2=NCCCN2)CCc2ccccc21` [ZINC000656508398] was tested. Which remaining activity at 1 µM did it give?
The remaining activity at 1 µM was 55.9%.

How did the remaining activity at 1 µM turn out when `C[C@@H](Cc1ccc2c(c1)CCCC2)N[C@H]1CCN(C2CCOCC2)C1=O` [ZINC000657922756] was run?
Its remaining activity at 1 µM is 1.7%.

Which remaining activity at 1 µM does the source give for `C[C@H](Cn1ncc2ccccc2c1=O)N[C@@H](C)Cc1ccc2c(c1)CCCC2` [ZINC000657934399] here?
Its remaining activity at 1 µM is 13.3%.

`C[C@H](Cn1cncn1)N[C@@H]1CCN(c2ccccc2C(F)(F)F)C1` [ZINC000657977970] was tested. Which remaining activity at 1 µM did it give?
Its remaining activity at 1 µM is 83.1%.

How did the remaining activity at 1 µM turn out when `COc1ccc([C@@H](C)N[C@H](CO)C2CCC2)cc1Br` [ZINC000658086473] was run?
Its remaining activity at 1 µM is 42.3%.

How did the remaining activity at 1 µM turn out when `CCOc1cc2c(cc1NC(=O)C[C@@H]1NCc3ccccc31)O[C@@H](C)C2` [ZINC000659267272] was run?
The remaining activity at 1 µM was 101%.
